Source: ChEMBL document CHEMBL1671676, “In vitro activity of nemonoxacin, a novel nonfluorinated quinolone, against 2,440 clinical isolates” (2009)
In brackets after ≈: the same amount, converted by molar mass.

Tests used:
Type in all cases: functional
Staphylococcus aureus [1] = assay: Antibacterial activity against community-associated methicillin-resistant Staphylococcus aureus assessed as percent cumulative susceptible isolates at minimum inhibitory concentration of […] by CLSI broth microdilution method; set-up: scale not given: the % may be the effect or the level left
Klebsiella pneumoniae [2] = assay: Antibacterial activity against Klebsiella pneumoniae assessed as percent cumulative susceptible isolates at minimum inhibitory concentration of 4 ug/ml by CLSI broth microdilution method; set-up: scale not given: the % may be the effect or the level left
Klebsiella pneumoniae [3] = assay: Antibacterial activity against Klebsiella pneumoniae assessed as percent cumulative susceptible isolates at minimum inhibitory concentration of 0.06 ug/ml by CLSI broth microdilution method; set-up: scale not given: the % may be the effect or the level left
Staphylococcus aureus [4] = assay: Antibacterial activity against hospital-associated methicillin-resistant Staphylococcus aureus assessed as percent cumulative susceptible isolates at minimum inhibitory concentration of […] by CLSI broth microdilution method; set-up: scale not given: the % may be the effect or the level left
Staphylococcus aureus [5] = assay: Antibacterial activity against methicillin-susceptible Staphylococcus aureus assessed as percent cumulative susceptible isolates at minimum inhibitory concentration of 1 ug/ml by CLSI broth microdilution method; set-up: scale not given: the % may be the effect or the level left
Enterococcus faecium [6] = assay: Antibacterial activity against Enterococcus faecium assessed as percent cumulative susceptible isolates at minimum inhibitory concentration of 4 ug/ml by CLSI broth microdilution method; set-up: scale not given: the % may be the effect or the level left
Enterococcus faecalis [7] = assay: Antibacterial activity against Enterococcus faecalis assessed as percent cumulative susceptible isolates at minimum inhibitory concentration of 2 ug/ml by CLSI broth microdilution method; set-up: scale not given: the % may be the effect or the level left
Staphylococcus aureus [8] = assay: Antibacterial activity against Staphylococcus aureus by CLSI M7-A7 broth microdilution method
Staphylococcus aureus [9] = assay: Antibacterial activity against methicillin-susceptible Staphylococcus aureus assessed as percent cumulative susceptible isolates at minimum inhibitory concentration of 0.5 ug/ml by CLSI broth microdilution method; set-up: scale not given: the % may be the effect or the level left
Acinetobacter baumannii [10] = assay: Antibacterial activity against Acinetobacter baumannii assessed as percent cumulative susceptible isolates at minimum inhibitory concentration of 1 ug/ml by CLSI broth microdilution method; set-up: scale not given: the % may be the effect or the level left
[11] = tested on: Stenotrophomonas maltophilia; assay: Antibacterial activity against Stenotrophomonas maltophilia assessed as percent cumulative susceptible isolates at minimum inhibitory concentration of 1 ug/ml by CLSI broth microdilution method; set-up: scale not given: the % may be the effect or the level left
Escherichia coli [12] = assay: Antibacterial activity against Escherichia coli assessed as percent cumulative susceptible isolates at minimum inhibitory concentration of 4 ug/ml by CLSI broth microdilution method; set-up: scale not given: the % may be the effect or the level left
Acinetobacter baumannii [13] = assay: Antibacterial activity against Acinetobacter baumannii assessed as percent cumulative susceptible isolates at minimum inhibitory concentration of […] by CLSI broth microdilution method; set-up: scale not given: the % may be the effect or the level left
Streptococcus pneumoniae [14] = assay: Antibacterial activity against Streptococcus pneumoniae assessed as percent cumulative susceptible isolates at minimum inhibitory concentration of 0.06 ug/ml by CLSI broth microdilution method; set-up: scale not given: the % may be the effect or the level left
Pseudomonas aeruginosa [15] = assay: Antibacterial activity against Pseudomonas aeruginosa assessed as percent cumulative susceptible isolates at minimum inhibitory concentration of […] by CLSI broth microdilution method; set-up: scale not given: the % may be the effect or the level left
Klebsiella pneumoniae [16] = assay: Antibacterial activity against Klebsiella pneumoniae assessed as percent cumulative susceptible isolates at minimum inhibitory concentration of 1 ug/ml by CLSI broth microdilution method; set-up: scale not given: the % may be the effect or the level left
Enterococcus faecium [17] = assay: Antibacterial activity against Enterococcus faecium assessed as percent cumulative susceptible isolates at minimum inhibitory concentration of 32 ug/ml by CLSI broth microdilution method; set-up: scale not given: the % may be the effect or the level left
Escherichia coli [18] = assay: Antibacterial activity against Escherichia coli assessed as percent cumulative susceptible isolates at minimum inhibitory concentration of […] by CLSI broth microdilution method; set-up: scale not given: the % may be the effect or the level left
Enterobacter cloacae [19] = assay: Antibacterial activity against Enterobacter cloacae assessed as percent cumulative susceptible isolates at minimum inhibitory concentration of […] by CLSI broth microdilution method; set-up: scale not given: the % may be the effect or the level left
Escherichia coli [20] = assay: Antibacterial activity against Escherichia coli assessed as percent cumulative susceptible isolates at minimum inhibitory concentration of 0.5 ug/ml by CLSI broth microdilution method; set-up: scale not given: the % may be the effect or the level left
Enterobacter cloacae [21] = assay: Antibacterial activity against Enterobacter cloacae assessed as percent cumulative susceptible isolates at minimum inhibitory concentration of 1 ug/ml by CLSI broth microdilution method; set-up: scale not given: the % may be the effect or the level left
Pseudomonas aeruginosa [22] = assay: Antibacterial activity against Pseudomonas aeruginosa assessed as percent cumulative susceptible isolates at minimum inhibitory concentration of 1 ug/ml by CLSI broth microdilution method; set-up: scale not given: the % may be the effect or the level left
Klebsiella oxytoca = assay: Antibacterial activity against Klebsiella oxytoca assessed as percent cumulative susceptible isolates at minimum inhibitory concentration of 0.06 ug/ml by CLSI broth microdilution method; set-up: scale not given: the % may be the effect or the level left
Staphylococcus aureus [23] = assay: Antibacterial activity against methicillin-resistant Staphylococcus aureus assessed as percent cumulative susceptible isolates at minimum inhibitory concentration of […] by CLSI broth microdilution method; set-up: scale not given: the % may be the effect or the level left
Staphylococcus aureus [24] = assay: Antibacterial activity against methicillin-susceptible Staphylococcus aureus assessed as percent cumulative susceptible isolates at minimum inhibitory concentration of 4 ug/ml by CLSI broth microdilution method; set-up: scale not given: the % may be the effect or the level left
[25] = tested on: Staphylococcus epidermidis; assay: Antibacterial activity against methicillin-susceptible Staphylococcus epidermidis assessed as percent cumulative susceptible isolates at minimum inhibitory concentration of 4 ug/ml by CLSI broth microdilution method; set-up: scale not given: the % may be the effect or the level left
Staphylococcus aureus [26] = assay: Antibacterial activity against methicillin-resistant Staphylococcus aureus assessed as percent cumulative susceptible isolates at minimum inhibitory concentration of 1 ug/ml by CLSI broth microdilution method; set-up: scale not given: the % may be the effect or the level left
Enterococcus faecalis [27] = assay: Antibacterial activity against Enterococcus faecalis assessed as percent cumulative susceptible isolates at minimum inhibitory concentration of […] by CLSI broth microdilution method; set-up: scale not given: the % may be the effect or the level left
Acinetobacter baumannii [28] = assay: Antibacterial activity against Acinetobacter baumannii assessed as percent cumulative susceptible isolates at minimum inhibitory concentration of 16 ug/ml by CLSI broth microdilution method; set-up: scale not given: the % may be the effect or the level left
[29] = tested on: Stenotrophomonas maltophilia; assay: Antibacterial activity against Stenotrophomonas maltophilia assessed as percent cumulative susceptible isolates at minimum inhibitory concentration of 4 ug/ml by CLSI broth microdilution method; set-up: scale not given: the % may be the effect or the level left
Klebsiella pneumoniae [30] = assay: Antibacterial activity against Klebsiella pneumoniae assessed as percent cumulative susceptible isolates at minimum inhibitory concentration of 0.5 ug/ml by CLSI broth microdilution method; set-up: scale not given: the % may be the effect or the level left
[31] = tested on: Staphylococcus epidermidis; assay: Antibacterial activity against methicillin-susceptible Staphylococcus epidermidis assessed as percent cumulative susceptible isolates at minimum inhibitory concentration of 2 ug/ml by CLSI broth microdilution method; set-up: scale not given: the % may be the effect or the level left
Staphylococcus aureus [32] = assay: Antibacterial activity against methicillin-susceptible Staphylococcus aureus assessed as percent cumulative susceptible isolates at minimum inhibitory concentration of 8 ug/ml by CLSI broth microdilution method; set-up: scale not given: the % may be the effect or the level left
Klebsiella pneumoniae [33] = assay: Antibacterial activity against Klebsiella pneumoniae assessed as percent cumulative susceptible isolates at minimum inhibitory concentration of 2 ug/ml by CLSI broth microdilution method; set-up: scale not given: the % may be the effect or the level left
Enterobacter cloacae [34] = assay: Antibacterial activity against Enterobacter cloacae assessed as percent cumulative susceptible isolates at minimum inhibitory concentration of 8 ug/ml by CLSI broth microdilution method; set-up: scale not given: the % may be the effect or the level left
Streptococcus pneumoniae [35] = assay: Antibacterial activity against penicillin-resistant Streptococcus pneumoniae assessed as percent cumulative susceptible isolates at minimum inhibitory concentration of […] by CLSI broth microdilution method; set-up: scale not given: the % may be the effect or the level left
Proteus mirabilis = assay: Antibacterial activity against Proteus mirabilis assessed as percent cumulative susceptible isolates at minimum inhibitory concentration of 32 ug/ml by CLSI broth microdilution method; set-up: scale not given: the % may be the effect or the level left
Staphylococcus aureus [36] = assay: Antibacterial activity against methicillin-resistant Staphylococcus aureus by CLSI M7-A7 broth microdilution method
Escherichia coli [37] = assay: Antibacterial activity against Escherichia coli assessed as percent cumulative susceptible isolates at minimum inhibitory concentration of 32 ug/ml by CLSI broth microdilution method; set-up: scale not given: the % may be the effect or the level left

SMILES | Activity (Staphylococcus aureus [1]) [%] | Activity (Klebsiella pneumoniae [2]) [%] | Activity (Klebsiella pneumoniae [3]) [%] | Activity (Staphylococcus aureus [4]) [%] | Activity (Staphylococcus aureus [5]) [%] | Activity (Enterococcus faecium [6]) [%] | Activity (Enterococcus faecalis [7]) [%] | MIC (Staphylococcus aureus [8]) [µg/mL] | MIC90 (Staphylococcus aureus [8]) [µg/mL] | Activity (Staphylococcus aureus [9]) [%] | Activity (Acinetobacter baumannii [10]) [%] | Activity [11] [%] | Activity (Escherichia coli [12]) [%] | Activity (Acinetobacter baumannii [13]) [%] | Activity (Streptococcus pneumoniae [14]) [%] | Activity (Pseudomonas aeruginosa [15]) [%] | Activity (Klebsiella pneumoniae [16]) [%] | Activity (Enterococcus faecium [17]) [%] | Activity (Escherichia coli [18]) [%] | Activity (Enterobacter cloacae [19]) [%] | further results
COc1c(N2C[C@@H](C)C[C@H](N)C2)ccc2c(=O)c(C(=O)O)cn(C3CC3)c12 [NEMONOXACIN] | 60 | 94 | 1.5 | 4 | 94.9 | 42.1 | 97.5 | < 2 | 0.06 (≈ 0.162 µM) | 93.9 | 93.3 | 26.9 | 75.8 | 73.3 | 99.4 | 4.4 | 86.9 | 79 | 68.8 | 83.3 | Activity (Escherichia coli [20]): 72.5%; Activity (Enterobacter cloacae [21]): 91.7%; Activity (Pseudomonas aeruginosa [22]): 51.1%; Activity (Klebsiella oxytoca): 6.3%; Activity (Staphylococcus aureus [23]): 16.5%; Activity (Staphylococcus aureus [24]): 98.9%; Activity [25]: 100%; Activity (Staphylococcus aureus [26]): 34.6%; Activity (Enterococcus faecalis [27]): 67.9%; Activity (Acinetobacter baumannii [28]): 100%; Activity [29]: 73.1%; Activity (Klebsiella pneumoniae [30]): 77.9%; Activity [31]: 97.8%; Activity (Staphylococcus aureus [32]): 99.2%; Activity (Klebsiella pneumoniae [33]): 92%; Activity (Enterobacter cloacae [34]): 95.8%; Activity (Streptococcus pneumoniae [35]): 84.4%; Activity (Proteus mirabilis): 93.9%; MIC50 (Staphylococcus aureus [36]): 4 µg/mL (≈ 10.8 µM); Activity (Escherichia coli [37]): 93.2%
C[C@H]1COc2c(N3CCN(C)CC3)c(F)cc3c(=O)c(C(=O)O)cn1c23.C[C@H]1COc2c(N3CCN(C)CC3)c(F)cc3c(=O)c(C(=O)O)cn1c23.O [LEVOFLOXACIN] | 24 | 96 | 69.8 | 3 | 91.4 | 28.9 | 67.9 | ≥ 2 | 16 | 88.8 | 93.3 | 46.2 | 75.6 | 80 | 0.5 | 10.2 | 92.5 | 100 | 70 | 90.3 | Activity (Escherichia coli [20]): 73.6%; Activity (Enterobacter cloacae [21]): 91.7%; Activity (Pseudomonas aeruginosa [22]): 59.9%; Activity (Klebsiella oxytoca): 93.8%; Activity (Staphylococcus aureus [23]): 8.7%; Activity (Staphylococcus aureus [24]): 92%; Activity [25]: 62.8%; Activity (Staphylococcus aureus [26]): 9.4%; Activity (Enterococcus faecalis [27]): 2.5%; Activity (Acinetobacter baumannii [28]): 100%; Activity [29]: 84.6%; Activity (Klebsiella pneumoniae [30]): 87.4%; Activity [31]: 55.8%; Activity (Staphylococcus aureus [32]): 93.6%; Activity (Klebsiella pneumoniae [33]): 93%; Activity (Enterobacter cloacae [34]): 98.6%; Activity (Streptococcus pneumoniae [35]): 3.1%; Activity (Proteus mirabilis): 100%; MIC50 (Staphylococcus aureus [36]): ≥ 32 µg/mL; Activity (Escherichia coli [37]): 100%
